How the values were obtained:
Type in all cases: cell-based
[1] = target: T1, OR12D2 (Homo sapiens, UniProt P58182); assay: Ca-imaging of OR12D2-transfected HEK293 cells; design: key: ▪: 18 olfactory receptors responded to 32 odorants in related with specific anosmia; settings: individual odorant 200 μM, significant response p<0.05
T1 construct: specific primers, which amplify the complete open reading frame; expressed in transfected cells; host or cells: HEK293
T1 sequence (P58182 1-307): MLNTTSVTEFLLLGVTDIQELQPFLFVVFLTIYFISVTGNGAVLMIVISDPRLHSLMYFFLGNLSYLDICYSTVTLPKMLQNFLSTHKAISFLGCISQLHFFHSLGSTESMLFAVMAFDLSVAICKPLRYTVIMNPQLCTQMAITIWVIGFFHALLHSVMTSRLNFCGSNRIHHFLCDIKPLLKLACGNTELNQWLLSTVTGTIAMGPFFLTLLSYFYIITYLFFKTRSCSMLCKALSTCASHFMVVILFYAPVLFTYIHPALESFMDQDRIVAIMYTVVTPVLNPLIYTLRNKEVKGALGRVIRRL
Procedure: In preparation for Ca-imaging measurements, transfected HEK293 cells were added 3 it Fura2/AM (3 μM) and incubated 30-45 min at 370 C, 5% CO2. After this step, experiments were carried out in a dark condition (Fura-2 is light-sensitive). […]

[2] = target: T2, OR4E2 (Homo sapiens, UniProt Q8NGC2); assay: Ca-imaging of OR4E2-transfected HEK293 cells; design: key: ▪: 18 olfactory receptors responded to 32 odorants in related with specific anosmia; settings: individual odorant 200 μM, significant response p<0.05
T2 construct: specific primers, which amplify the complete open reading frame; expressed in transfected cells; host or cells: HEK293
T2 sequence (Q8NGC2 1-313): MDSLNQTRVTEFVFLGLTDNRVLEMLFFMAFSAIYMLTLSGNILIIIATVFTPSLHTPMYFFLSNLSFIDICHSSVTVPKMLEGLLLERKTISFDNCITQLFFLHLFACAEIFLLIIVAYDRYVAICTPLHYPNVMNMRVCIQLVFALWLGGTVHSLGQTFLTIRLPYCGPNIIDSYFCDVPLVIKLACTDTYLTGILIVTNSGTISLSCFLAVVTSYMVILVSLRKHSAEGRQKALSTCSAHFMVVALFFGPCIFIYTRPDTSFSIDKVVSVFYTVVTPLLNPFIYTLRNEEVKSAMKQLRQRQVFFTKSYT
Procedure: (§1) HEK293 cells were cultivated in Petri dishes (Ø35 mm) as previously described (Benbernou et al. 2007). We grow up HEK293 cells in culture medium containing standard DMEM with 10% heat-inactivated fetal bovine serum, 2 mM L-glutamine, 100 units/ml penicillin, and 100 units/ml streptomycin in a humidified atmosphere (37° C., 5% CO2). After 2-3 days, the transfection process was carried out, whereby the cell culture was 70-80% confluent. The calciumphosphate method was applied to transfect DNA plasmid transiently in HEK293 cells in case of Ca-imaging method.
(§2) Calcium cations and phosphate anions created crystal precipitations coupled with DNA which could invade into the cells through endocytosis. Cells were transiently transfected with plasmid DNA which consists of pCI expression vector and PCR-amplified full-length cDNA of olfactory receptors candidates, and also Gα15, RTP1, Myr-Ric8A, HSC70, and m-Cherry as cofactors. The precipitation could be created after 15-20 min, with dropping the transfection solution on HEK293 cells. Before measuring by Ca-imaging cells were incubated 48-60 hours at 370 C, 5% CO2. […]
(§3) Calcium imaging of the transfected HEK293 cells was done by using chambers determinate an inverted microscope (Olympus; IX70) using a 10× objective (CPIanFL N Olympus). Fluorescence emission was determined every 4 s by using a CCD camera (Charge Coupled Device, C9100 Hamamatsu). […] Odorants were manually monitored to drop each 4-5 s to transfected cells. […]
(§4) In experiments, Fura-2 Acetoxymethylester (Fura-2/AM) was applied. […] According to this feature, the analysis of 340/380 nm excitation ratio for Fura-2 allows to quantify intracellular calcium levels. […]
(§5) Ringer's solution was used for washing cells between measuring by two different odorants. Positive response was determined by the timing of the response, the strength of the response (more than twofold higher than the noise amplitude of the baseline), and the shape of the response curve (sharp rise in curve with gradual recovery). […]

[3] = target: T3, OR52B4 (Homo sapiens, UniProt Q8NGK2); assay: Ca-imaging of OR52B4-transfected HEK293 cells; design: key: ▪: 18 olfactory receptors responded to 32 odorants in related with specific anosmia; settings: individual odorant 200 μM, significant response p<0.05
T3 construct: specific primers, which amplify the complete open reading frame; expressed in transfected cells; host or cells: HEK293
T3 sequence (Q8NGK2 1-314): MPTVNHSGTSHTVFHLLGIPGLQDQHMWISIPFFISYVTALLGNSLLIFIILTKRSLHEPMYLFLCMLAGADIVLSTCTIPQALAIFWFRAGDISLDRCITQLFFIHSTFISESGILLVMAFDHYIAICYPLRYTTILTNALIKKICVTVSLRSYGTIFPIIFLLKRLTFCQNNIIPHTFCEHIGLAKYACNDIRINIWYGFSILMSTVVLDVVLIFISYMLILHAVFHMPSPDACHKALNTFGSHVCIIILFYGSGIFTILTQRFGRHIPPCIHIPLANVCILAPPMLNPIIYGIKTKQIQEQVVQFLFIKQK
Procedure: as §1
(§6) Calcium cations and phosphate anions created crystal precipitations coupled with DNA which could invade into the cells through endocytosis. Cells were transiently transfected with plasmid DNA which consists of pCI expression vector and PCR-amplified full-length cDNA of olfactory receptors candidates, and also Gα15, RTP1, Myr-Ric8A, HSC70, and m-Cherry as cofactors. The precipitation could be created after 15-20 min, with dropping the transfection solution on HEK293 cells. Before measuring by Ca-imaging cells were incubated 48-60 hours at 370 C, 5% CO2. Cationic liposome-mediated transfection method was applied to transfect DNA plasmid transiently in HANA3A cells in case of CRE-Luciferase and CRE-SEAP assays.
(§7) Calcium imaging of the transfected HEK293 cells was done by using chambers determinate an inverted microscope (Olympus; IX70) using a 10× objective (CPIanFL N Olympus). Fluorescence emission was determined every 4 s by using a CCD camera (Charge Coupled Device, C9100 Hamamatsu). The capillary tube which was responsible to supply odorants was generated closely above the cells. The columns filled with odorants, DMSO and ATP. Odorants were manually monitored to drop each 4-5 s to transfected cells. Solutions with drop wise form spread on HEK293 cells in 35 mm dishes.
In experiments, Fura-2 Acetoxymethylester (Fura-2/AM) was applied. The non-polar Fura2/AM is fluorescent but not yet calcium-sensitive. Once diffuses into cell plasma, Fura-2/AM is hydrolyzed to Fura-2 which is calcium-sensitive and functions as Ca2+ chelator. Regardless of the presence of calcium, Fura-2 emits at the wavelength of 510 nm. […] According to this feature, the analysis of 340/380 nm excitation ratio for Fura-2 allows to quantify intracellular calcium levels. […]
as §5

[4] = target: T4, OR4P4 (Homo sapiens, UniProt Q8NGL7); assay: Ca-imaging of OR4P4-transfected HEK293 cells; design: key to OR4P4 responded to odorant: ▪: 18 olfactory receptors responded to 32 odorants in related with specific anosmia; settings: HEK293 cells, individual odorant 200 μM, significant response p<0.05
T4 construct: specific primers, which amplify the complete open reading frame; expressed in transfected cells; host or cells: HEK293
T4 sequence (Q8NGL7 1-312): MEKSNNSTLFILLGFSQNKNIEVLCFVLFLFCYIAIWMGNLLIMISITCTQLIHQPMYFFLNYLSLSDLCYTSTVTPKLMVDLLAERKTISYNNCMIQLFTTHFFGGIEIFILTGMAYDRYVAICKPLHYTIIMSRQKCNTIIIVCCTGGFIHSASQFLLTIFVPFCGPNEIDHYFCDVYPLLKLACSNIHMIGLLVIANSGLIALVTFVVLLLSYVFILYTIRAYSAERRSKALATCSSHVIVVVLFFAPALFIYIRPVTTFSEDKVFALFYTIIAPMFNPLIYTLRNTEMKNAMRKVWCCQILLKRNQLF
Procedure: as §1, §2, §3, §4, §5

[5] = target: T5, OR4K2 (Homo sapiens, UniProt Q8NGD2); assay: Ca-imaging of OR4K2-transfected HEK293 cells; design: key to OR4K2 responded to odorant: ▪: 18 olfactory receptors responded to 32 odorants in related with specific anosmia; settings: HEK293 cells, individual odorant 200 μM, significant response p<0.05
T5 construct: specific primers, which amplify the complete open reading frame; expressed in transfected cells; host or cells: HEK293
T5 sequence (Q8NGD2 1-314): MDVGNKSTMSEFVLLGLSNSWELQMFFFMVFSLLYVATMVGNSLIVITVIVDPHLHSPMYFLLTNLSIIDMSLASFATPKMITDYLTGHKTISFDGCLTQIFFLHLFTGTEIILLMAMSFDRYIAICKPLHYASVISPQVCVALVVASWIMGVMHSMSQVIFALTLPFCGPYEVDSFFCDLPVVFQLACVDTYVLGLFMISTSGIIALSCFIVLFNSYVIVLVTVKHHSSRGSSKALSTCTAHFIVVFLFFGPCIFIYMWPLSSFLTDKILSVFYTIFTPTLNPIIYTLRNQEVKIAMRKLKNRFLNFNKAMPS
Procedure: as §1, §6, §7
In experiments, Fura-2 Acetoxymethylester (Fura-2/AM) was applied. The non-polar Fura2/AM is fluorescent but not yet calcium-sensitive. Once diffuses into cell plasma, Fura-2/AM is hydrolyzed to Fura-2 which is calcium-sensitive and functions as Ca2+ chelator. Regardless of the presence of calcium, Fura-2 emits at the wavelength of 510 nm. Once Fura-2 binds to free intracellular Ca2+ in cell plasma, its ratio of excitation at wavelengths of 340 nm and 380 nm is changed and correlated to the amount of intracellular Ca2+. According to this feature, the analysis of 340/380 nm excitation ratio for Fura-2 allows to quantify intracellular calcium levels.
In preparation for Ca-imaging measurements, transfected HEK293 cells were added 3 it Fura2/AM (3 μM) and incubated 30-45 min at 370 C, 5% CO2. After this step, experiments were carried out in a dark condition (Fura-2 is light-sensitive). After the incubation, medium of cell culture was replaced with 2 ml Ringer's solution.
Odorants were freshly prepared with DMSO as 1 M stocks solutions. Six mixtures (200 μM each chemical) were applied to cells sequentially (20 s each mixture/30 s Ringer). Those ORs tested with single odorants that had generated a response to odorant mixture group previously. Odorants were prepared in 100-200 μM concentration.
as §5

SMILES	OR12D2 responded to odorant [1]	OR4E2 responded to odorant [2]	further results
COc1c(Cl)cc(Cl)cc1Cl [2-4-6 trichoroanisole, 2-4-6-Trichloroanisole]	–	▪	OR52B4 responded to odorant [3]: ▪
CCCCCC(=O)O [N-Hexanoic acid, NHexanoic acid]	–	–	OR4P4 responded to odorant [4]: ▪
CC(C)=CCC/C(C)=C/CO [Graniol, Geraniol]	–	▪	–
O=CCCc1ccccc1 [3-phenyl propyl aldehyde, 3-Phenylpropionaldehyde]	–	▪	OR4K2 responded to odorant [5]: ▪

Second part, led by results:

OR12D2 responded to odorant [1]	SMILES	OR4E2 responded to odorant [2]	further results
▪	CC(C)CC(=O)O [Isovaleric acid]	–	–
▪	CC(=O)O [Acetic acid]	–	–
▪	CCC(=O)O [Propionic acid]	–	–

Reference: patent publication US9939427B2, “Method for evaluating the scent performance of perfumes or perfume mixtures” (Symrise AG, priority 2013, dated 2018)
